Measured values reported in patent US20130224239A1, “ALCOHOLIC EXTRACT OF FUNGI OF GENUS […] AND USE THEREOF” (KING SAUD UNIVERSITY, priority 2011, published 2013).
Entries after “also recorded” stand apart in the source; their conditions may differ. Marks after values point to notes of the source that are not given here.

How the values were obtained:
[1] = system: Escherichia coli (RCMB 0103); test: Antimicrobial screening, disc diffusion; format: cell-based; conditions: compounds isolated from Cunninghamella elegans
Description: (§1) The alcoholic extracts obtained were used for testing their antimicrobial activity. Each extract (0.5 g) was dissolved in 10 ml water. Same concentrations for the successive extracts (using diethyl ether, chloroform, ethyl acetate and n-butanol) were also prepared.
(§2) The representatives of Gram negative bacteria, namely Salmonella typhimuium (RCMB 0104), Escherichia coli (RCMB 0103), Pseudomonas aeruginosa (RCMB 0102) and Gram positive bacteria, namely Bacillus subtilis (RCMB 0107), Staphylococcus aureus (RCMB 0106), Streptococcus pyogenes (RCMB 0109), unicellular fungi, namely Candida albicans (RCMB 5002) and filamentous fungi, namely Aspergillus fumigatus (RCMB 2003) and Penicllium expansum (RCMB 1006) were used as test organisms (RCMB: The Regional Center for Mycology and Biotechnology, Al-azhar University Nasser City, Cairo, Egypt).
(§3) For antimicrobial screening the well known disc diffusion and agar well diffusion methods were used, together with the determination of minimum inhibitory concentration (MIC), see Duguid et al., Microbial Infections, The English Language Book Society, Churchill Livingston, Edingburgh, London, 1978; vol. 1, page 110.
(§4) Disc diffusion method: The agar disc diffusion method is employed for the determination of antimicrobial activities of the extracts of the investigated fungal species. Sterilized paper discs (Whatman No. 1) ([…]) were separately soaked in the extracts and transferred onto the surface of growth media seeded with the test organism. After incubation period, following suitable conditions for the test organism, the diameter of the inhibition zone around the discs was measured in millimeters. The obtained result was the mean of three experiments.
(§5) Each fungal species was grown on malt extract media at 28±2° C. for 14 days. The metabolites of the fungal species were screened for antimicrobial activity. The inhibition zones around each disc were measured, in millimeter, and recorded (Tables 1).

[2] = system: Bacillus subtilis (RCMB 0107); test: Antimicrobial screening, disc diffusion; format: cell-based; conditions: compounds isolated from Cunninghamella elegans
Description: as §1, §2, §3, §4, §5

[3] = system: Candida albicans (RCMB 5002); test: Antimicrobial screening, disc diffusion; format: cell-based; conditions: compounds isolated from Cunninghamella elegans
Description: as §1, §2, §3, §4, §5

[4] = system: Penicllium expansum (RCMB 1006); test: Antimicrobial screening, disc diffusion; format: cell-based; conditions: Penicillium expansum; compounds isolated from Cunninghamella elegans
Description: as §1, §2, §3, §4, §5

[5] = system: Streptococcus pyogenes (RCMB 0109); test: Antimicrobial screening, disc diffusion; format: cell-based; conditions: compounds isolated from Cunninghamella elegans
Description: as §1, §2, §3, §4, §5

[6] = system: Aspergillus fumigatus (RCMB 2003); test: Antimicrobial screening, disc diffusion; format: cell-based; conditions: compounds isolated from Cunninghamella elegans
Description: as §1, §2, §3, §4, §5

[7] = system: Salmonella typhimuium (RCMB 0104); test: Antimicrobial screening, disc diffusion; format: cell-based; conditions: Salmonella typhimuim; compounds isolated from Cunninghamella elegans
Description: as §1, §2, §3
as §4, with “millimeters.” for “millimeters. The obtained result was the mean of three experiments.”
Each fungal species was grown on malt extract media at 28±2° C. for 14 days. The metabolites of the fungal species were screened for antimicrobial activity.

[8] = system: Staphylococcus aureus infected wounds; test: Wound healing activity, excision wound model; format: in vivo, guinea pig
Description: Swiss albino mice (20-25 g), male Sprague-Dawley rats (160-180 g) and male guinea pigs (240-260 g) were employed in the study. The animals were left for 2 weeks at room conditions to ensure stabilization before use. They were maintained on standard pellet diet and water ad libitum throughout the experiment. • a) Acute Toxicity: Mice were divided into groups of 6 and the methanol extracts of C. blakesleeana, C. elegans and C. homothallica were administered orally in increasing doses. […] Rats of the 1^St group were given a vehicle (1% v/v Tween 80) in a dose of 5 ml kg^−1 and left as normal control. Rats of the 2nd, 3rd, and 4th groups were administered the methanol extracts of C. blakesleeana, C. elegans and C. homothallica, respectively in a dose of 200 mg kg^−1. All medications were administered orally via the aid of an oral tube for 35 days. […] At the end of the experimental period, blood samples (2 mL) were collected from the retro-orbital venous plexus of each rat (under ether anesthesia) into clean centrifuge tubes. The blood samples were allowed to clot at room temperature for 30 min after which they were centrifuged at 10,000 rpm for 5 minutes. Sera were separate with Pasteur pipette into sterile serum sample tubes and used for biochemical assay.
Measurement of Liver and Kidney Function Markers: • Liver functions were evaluated by measuring the serum activity of aspartate aminotransferase (AST) and alanine aminotransferase (ALT) following the method of Reitman and Frankel, Am. J. Clin. Path., 28: 55-60, alkaline phosphatase enzyme (ALP) by the method of Babson et al., Clinical Chemistry, 12: 482-490. Serum levels of total bilirubin, total proteins and albumin were also assayed. Globulin was obtained from the difference between total proteins and albumin. Serum concentrations of uric acid, urea and creatinine were determined colormetrically as measures of kidney functions. All measurements were carried out by protocols well known in the art. • c) Wound Healing Activity: The excision wound model was used to monitor wound contraction and wound closure time. Four groups of male guinea pigs were used in the experiment with 6 animals in each group. At the beginning of the experiment, the dorsal skin of each guinea pig was shaved with an electric clipper. After 24 hours, all animals were anesthetized by diethyl ether and the shaved areas were sterilized with 70% alcoholic solution. A predetermined dorsal area (15 mm×20 mm) was inflicted by cutting away a full thickness of skin (2 mm depth) using toothed forceps, scalpel and pointed scissors. A fresh surgical blade was used for the perpendicular cut in each animal and tension of skin was kept constant during the procedure. Local infection with Staphylococcus aureus was introduced into wounds using 0.5 mL of 10^8 bacteria mL^−1 inoculums. The wounds were left undressed to the open environment and the animals were kept individually in separate cages. • Wounds treatment: Wounds were air exposed and treatment began 24 h after injury. Wounds of the control animals were treated with the vehicle (1% v/v Tween 80). Guinea pigs of the second and third group were treated with total alcohol extract of C. elegans and the isolated compound (adenosine) in a concentration of 5 mg mL^−1, while animals of the fourth group were medicated with latamoxef (Moxalactam)® in a concentration of 30 μg mL^−1 (Reference group). The vehicle, extract, and reference drug were applied topically on the wound surface once a day for 18 days. […] of each tested material was applied slowly, using an insulin syringe, from the central point extending outside the wound area to ensure inclusion of the edges. Swabs were taken on day 5 to confirm the presence of the expected organisms in the pus. • Assessment of wound healing: The wound areas were measured while the animals were under anaesthesia on days 0, 4, 7, 10, 14, and 18 post-wounding by tracing the wound areas onto a transparent tracing paper. […]

[9] = topical 5 mg mL^−1 once a day, n = 6
[10] = topical 5 mg mL^−1 once a day, n = 6, listed as compound 1 (adenosine)

Question: What does the source list for `Nc1ncnc2c1ncn2C1OC(CO)C(O)C1O` (stereo not drawn) [Compound 4, 2-(6-amino-9H-purine-9-yl)-5-(hydroxymethyl)oxolane-3,4-diol]?
Answer: Diameter of inhibition zone [1]: 00.0 mm; Diameter of inhibition zone [2]: 00.0 mm; Diameter of inhibition zone [3]: 00.0 mm; Diameter of inhibition zone [4]: 00.0 mm; Diameter of inhibition zone [5]: 00.0 mm; Diameter of inhibition zone [6]: 00.0 mm; Diameter of inhibition zone [7]: 00.0 mm; wound contraction ([8]; Day 14, topical 5 mg mL^−1): 76.50%; Wound area on day 0 ([8]; day 0, topical 5 mg mL^−1 once a day, n = 6): 300 ± 0.0 mm^2; Wound area on day 4 ([8]; day 4, topical 5 mg mL^−1 once a day, n = 6): 241.2 ± 4.23* mm^2; Wound area on day 7 ([8]; day 7, topical 5 mg mL^−1 once a day, n = 6): 168.1 ± 2.18** mm^2; Wound area on day 10 [8, 9]: 83.4±3.16 mm^2; Wound area on day 10 [8, 10]: 85.6 ± 4.13*** mm^2; Wound area on day 14 [8, 9]: 22.4±1.15 mm^2; Wound area on day 14 [8, 10]: 23.3 ± 1.11*** mm^2; Wound area on day 18 [8, 9]: 0.0 mm^2; Wound area on day 18 [8, 10]: 0.0 ± 0.0 mm^2; wound healing effect (in words) ([8]; topical 5 mg mL−1 on excised infected wound): effective in healing excision type of wounds; also recorded: good wound healing effect
